Like-named read-outs stand apart in the source and are kept apart here.

Assay [1] relates to Amaranthus retroflexus (pigweed). Briefly: Enhancement of herbicide activity: pre-emergence Amaranthus kill with metribuzin. Type of assay: in vivo. The note with it: for pest or weed control at 100 g/ha: Amaranthus retroflexus; for enhancement of metribuzin herbicidal activity: compound at 100 g/ha with metribuzin, at seven and fourteen days. The protocol: Specifically, Amaranthus retroflexus (pigweed) was treated pre-emergence with metribuzin alone or in combination with an enhancer compound disclosed herein. Fifteen seeds of Amaranthus retroflexus were sown in soil in each pot and then sprayed with a mixture of metribuzin at the appropriate rate shown in Table 5 and the compound of this invention at 100 g/ha using a track sprayer at a water volume of 200 L/hectare. Small amounts of acetone were used to aid solubility. The pots were watered immediately after sowing and treatment and then allowed to stand in a glasshouse. Assessment of kill was made seven and fourteen days after treatment. The test included four replicates for each treatment and the control.

Assay [2] relates to Brown Rust (Puccinia recondita) on wheat. Briefly: Greenhouse crop test: control of Brown Rust on wheat in combination with commercial fungicides. Type of assay: in vivo. As to conditions: wheat JB Diego, inoculated 24 hours after treatment, evaluated at fourteen days; for Amistar (% control of the disease, compound + fungicide): with Amistar 0.04 L/ha; for Balaya (% control of the disease, compound + fungicide): with Balaya 0.25 L/ha; for Imtrex (% control of the disease, compound + fungicide): with Imtrex 0.45 L/ha; for Proline (% control of the disease, compound + fungicide): with Proline 0.15 L/ha. The protocol: In this method, exemplary compounds were evaluated for their ability to control Brown Rust (Puccinia recondita) on wheat in a controlled greenhouse environment in combination with one of four fungicides, Amistar, Imtrex, Proline or Balaya. In these studies, wheat plants (JB Diego) were used. Seeds were sown in 9 cm diameter pots to a depth of 1 to 2 cm using Petersfield potting compost (75% medium grade peat, 12% screened sterilized loam, 3% medium grade vermiculite, 10% grit (5 mm screened, lime free), 1.5 kg PG mix per m3, lime to pH5.5-6.0 and wetting agent (Vitax Ultrawet 200 ml per m3) and germinated/grown at 23 C under a 16 h day/8 h night light regime. Plants were treated two to three weeks after sowing when they were at the BBCH 11 growth stage ([…]). Wheat plants were inoculated with Puccinia triticina (Brown rust) 24 hours after treatment. A track sprayer was used to treat the plants with the mixture of commercial fungicide and test compound using a water volume of 200 L/ha. Four replicates were used for each combination of fungicide, pathogen and test compound. Each plant was evaluated at fourteen days (once the disease symptoms were fully expressed) for % control of the disease. Appropriate controls were used for all experiments, including an ‘inoculation check’ wherein plants were inoculated with their specific pathogen to assess disease levels. Also, each commercial fungicide was tested on its own as a part of each treatment, this being benchmark against which the experimental compounds were evaluated. […] That is, the present compounds, although not fungicidal by themselves, enhance the activity of fungicides, thus the enhancer compounds work synergistically in combination with fungicides to control disease. • Amistar (0.04 L/ha) • Imtrex (0.45 L/ha) • Proline (0.15 L/ha) • Balaya (0.25 L/ha)

The test system of another assay is apyrase. Nature of the assay: Apyrase inhibition assay (screen for apyrase inhibitors, phosphate release read at 630 nm). Type of assay: biochemical. The note with it: inhibitor conc at 1 mM (10 μl added), 3 mM ATP, pH 6.5, room temperature 1 hr.
Where [3] appears, read: 168 h, read-out: Pre-Emergence Amaranthus Kill Percentage, Assessed 7 DAT, Metribuzin rate 50 g/ha.
Where [4] appears, read: 168 h, read-out: Pre-Emergence Amaranthus Kill Percentage, Assessed 7 DAT, Metribuzin rate 100 g/ha.
[5] abbreviates: 168 h, read-out: Pre-Emergence Amaranthus Kill Percentage, Assessed 7 DAT, Metribuzin rate 200 g/ha.
The mark [6] stands for this setting: 336 h, read-out: Pre-Emergence Amaranthus Kill Percentage, Assessed 14 DAT, Metribuzin rate 50 g/ha.
Where [7] appears, read: 336 h, read-out: Pre-Emergence Amaranthus Kill Percentage, Assessed 14 DAT, Metribuzin rate 100 g/ha.
Setting [8] is: 336 h, read-out: Pre-Emergence Amaranthus Kill Percentage, Assessed 14 DAT, Metribuzin rate 200 g/ha.

Consider `CCCc1ccc(S(=O)(=O)Nc2cccc(C)c2)cc1` [Compound A-62, 4-propyl-N-(m-tolyl)benzenesulfonamide], for which the pest or weed control at 100 g/ha in assay [1] (setting [3]) was determined as 23.5%; in assay [1] (setting [4]), 58.9%; in assay [1] (setting [5]), 95.8%; in assay [1] (setting [6]), 35.7%; in assay [1] (setting [7]), 61%; in assay [1] (setting [8]), 96%. Besides, the “enhancement of metribuzin herbicidal activity” value (shortened to “enhancement”) in assay [1] is “significant enhancement”. The “Amistar (% control of the disease, compound + fungicide)” value in assay [2] was determined as 71.7%. The “Balaya (% control of the disease, compound + fungicide)” value in assay [2] was 21.7%. Besides, in assay [2], the “Imtrex (% control of the disease, compound + fungicide)” value turned out to be 38.8%. In addition, the “Proline (% control of the disease, compound + fungicide)” value in assay [2] was determined as 1.4%. In addition, the Inhibition result in the assay on apyrase is listed as “A (A is inhibition above 30%)”.

With `Cc1cccc(NS(=O)(=O)c2ccc(CCC(=O)O)cc2)c1` [Compound A-103, 3-(4-(N-(m-tolyl)sulfamoyl)phenyl) propanoic acid], the pest or weed control at 100 g/ha is 5.1% in assay [1] (setting [3]); 54.7% in assay [1] (setting [4]); 91.5% in assay [1] (setting [5]); 30.6% in assay [1] (setting [6]); 43.1% in assay [1] (setting [7]); 98.4% in assay [1] (setting [8]). In addition, the “enhancement” value in assay [1] is listed as “significant enhancement”. For the same compound, the “Amistar (% control of the disease, compound + fungicide)” value in assay [2] was determined as 37.0%. For the same compound, the “Balaya (% control of the disease, compound + fungicide)” value in assay [2] is 67.2%. Also, in assay [2], the “Imtrex (% control of the disease, compound + fungicide)” value was 13.2%. In assay [2], the “Proline (% control of the disease, compound + fungicide)” value is listed as 4.4%. In addition, in the assay on apyrase, the Inhibition result is “B (B is inhibition from 20% to 30%)”.

As for `O=C1Cc2cc(NS(=O)(=O)c3ccc(-c4ccccc4)cc3)ccc2N1` [Compound A-8, N-(2-oxoindolin-5-yl)-[1,1′-biphenyl]-4-sulfonamide], the pest or weed control at 100 g/ha in assay [1] (setting [3]) came out at 12.8%; in assay [1] (setting [4]), 28.6%; in assay [1] (setting [5]), 100%; in assay [1] (setting [6]) it was 18.8%; in assay [1] (setting [7]) it was 35.7%; in assay [1] (setting [8]) it was 100%. Besides, in assay [1], the “enhancement” value is recorded as “significant enhancement”. For the same compound, the “Amistar (% control of the disease, compound + fungicide)” value in assay [2] was determined as 72.9%. Also, the “Balaya (% control of the disease, compound + fungicide)” value in assay [2] was found to be 77.2%. The “Imtrex (% control of the disease, compound + fungicide)” value in assay [2] was 47.8%. In addition, the “Proline (% control of the disease, compound + fungicide)” value in assay [2] turned out to be 13.3%. Further, the Inhibition entry with apyrase is given as “A (A is inhibition above 30%)”.

With `O=S(=O)(Nc1ccc(-c2nncs2)cc1)c1ccc(-c2ccccc2)cc1` [Compound A-29, N-(4-(1,3,4-thiadiazol-2-yl)phenyl)-[1,1′-biphenyl]-4-sulfonamide], the pest or weed control at 100 g/ha in assay [1] (setting [3]) amounted to 13.2%; in assay [1] (setting [4]), 66.7%; in assay [1] (setting [5]), 87.7%; in assay [1] (setting [6]) it was 17.1%; in assay [1] (setting [7]), 71.4%; in assay [1] (setting [8]), 90%. Further, the “enhancement” value in assay [1] is listed as “significant enhancement”. Moreover, the “Amistar (% control of the disease, compound + fungicide)” value in assay [2] worked out at 67.0%. The “Balaya (% control of the disease, compound + fungicide)” value in assay [2] is 59.5%. For the same compound, the “Imtrex (% control of the disease, compound + fungicide)” value in assay [2] was found to be 60.1%. Also, the “Proline (% control of the disease, compound + fungicide)” value in assay [2] is given as 18.7%. For the same compound, in the assay on apyrase, the Inhibition entry is reported as “A (A is inhibition above 30%)”.

Take `Cc1ccnc(NS(=O)(=O)c2ccc(CC#N)cc2)n1` [Compound A-21, 4-(cyanomethyl)-N-(4-methylpyrimidin-2-yl)benzenesulfonamide]: the pest or weed control at 100 g/ha stood at 0% in assay [1] (setting [3]); 62.3% in assay [1] (setting [4]); 100% in assay [1] (setting [5]); 4.4% in assay [1] (setting [6]); 63% in assay [1] (setting [7]); 100% in assay [1] (setting [8]). Moreover, in assay [1], the “enhancement” value is “significant enhancement”. For the same compound, the “Amistar (% control of the disease, compound + fungicide)” value in assay [2] is 48.5%. The “Balaya (% control of the disease, compound + fungicide)” value in assay [2] was determined as 39.0%. In assay [2], the “Imtrex (% control of the disease, compound + fungicide)” value was determined as 47.7%. In addition, the “Proline (% control of the disease, compound + fungicide)” value in assay [2] was found to be 1.2%. Also, in the assay with apyrase, the Inhibition entry is “A (A is inhibition above 30%)”.

In the case of `Cc1ccc(C(=O)N(C)C)cc1NS(=O)(=O)c1ccc(-c2ccccc2)cc1` [Compound A-108, 3-([1,1′-biphenyl]-4-sulfonamido)-N,N,4-trimethylbenzamide], the pest or weed control at 100 g/ha in assay [1] (setting [3]) was found to be 6.3%; in assay [1] (setting [4]), 76.5%; in assay [1] (setting [5]), 100%; in assay [1] (setting [6]), 13.5%; in assay [1] (setting [7]) it was 78.8%; in assay [1] (setting [8]), 100%. Further, in assay [1], the “enhancement” value is listed as “significant enhancement”. Further, in assay [2], the “Amistar (% control of the disease, compound + fungicide)” value was determined as 92.1%. In addition, the “Balaya (% control of the disease, compound + fungicide)” value in assay [2] was 31.7%. Moreover, the “Imtrex (% control of the disease, compound + fungicide)” value in assay [2] was found to be 40.5%. In assay [2], the “Proline (% control of the disease, compound + fungicide)” value is −1.2%. Moreover, the Inhibition entry with apyrase is given as “A (A is inhibition above 30%)”.

Regarding `COc1cccc(NS(=O)(=O)c2ccc(-c3ccccc3)cc2)c1` [Compound A-3, N-(3-methoxyphenyl)-[1,1′-biphenyl]-4-sulfonamide], the pest or weed control at 100 g/ha in assay [1] (setting [3]) was 15.6%; in assay [1] (setting [4]), 68.9%; in assay [1] (setting [5]), 34%; in assay [1] (setting [6]), 21.7%; in assay [1] (setting [7]), 72%; in assay [1] (setting [8]) it was 38.5%. Moreover, in assay [1], the “enhancement” value is “significant enhancement”. For the same compound, in assay [2], the “Amistar (% control of the disease, compound + fungicide)” value was 81.4%. Besides, the “Balaya (% control of the disease, compound + fungicide)” value in assay [2] turned out to be 38.9%. For the same compound, in assay [2], the “Imtrex (% control of the disease, compound + fungicide)” value is 47.6%. Further, the “Proline (% control of the disease, compound + fungicide)” value in assay [2] worked out at 3.8%. The Inhibition result in the assay with apyrase is “A (A is inhibition above 30%)”.

Consider `COc1cccc(NS(=O)(=O)c2ccc(-c3ccc(C)cc3)cc2)c1` [Compound A-34, N-(3-methoxyphenyl)-4′-methyl-[1,1′-biphenyl]-4-sulfonamide], for which the pest or weed control at 100 g/ha worked out at 28.3% in assay [1] (setting [3]); 70.5% in assay [1] (setting [4]); 100% in assay [1] (setting [5]); 37.3% in assay [1] (setting [6]); 77.8% in assay [1] (setting [7]); 100% in assay [1] (setting [8]). Moreover, the “enhancement” value in assay [1] was “significant enhancement”. Besides, the “Amistar (% control of the disease, compound + fungicide)” value in assay [2] is 51.9%. The “Balaya (% control of the disease, compound + fungicide)” value in assay [2] came to 48.3%. Moreover, the “Imtrex (% control of the disease, compound + fungicide)” value in assay [2] is listed as 34.5%. Besides, the “Proline (% control of the disease, compound + fungicide)” value in assay [2] was 3.8%. Further, in the assay with apyrase, the Inhibition entry is on record as “A (A is inhibition above 30%)”.

Take `O=S(=O)(Nc1cccc(C(F)(F)F)c1)c1cnc(-c2ccccc2)nc1` [Compound A-37, 2-phenyl-N-(3-(trifluoromethyl)phenyl)pyrim-idine-5-sulfonamide]: in assay [2], the “Amistar (% control of the disease, compound + fungicide)” value turned out to be 58.7%; the “Balaya (% control of the disease, compound + fungicide)” value is reported as 78.0%; the “Imtrex (% control of the disease, compound + fungicide)” value came to 12.7%; the “Proline (% control of the disease, compound + fungicide)” value is −1.2%. Besides, the Inhibition result in the assay with apyrase is “B (B is inhibition from 20% to 30%)”.
